ChEMBL document CHEMBL4052645, “Discovery of potent and efficacious pyrrolopyridazines as dual JAK1/3 inhibitors” (Bioorg Med Chem Lett, 2017)

Legend:
[1] = biological target: Serine/threonine-protein kinase Nek7 (Homo sapiens) (UniProt Q8TDX7); experiment: Inhibition of wild-type human full length NEK7 (M1 to S302 residues) expressed in bacterial expression system assessed as residual activity at 50 nM by Kinomescan method relative to control
[2] = biological target: Receptor-type tyrosine-protein kinase FLT3 (Homo sapiens) (UniProt P36888); experiment: Inhibition of wild-type human partial length FLT3 (V592 to Y969 residues) expressed in bacterial expression system assessed as residual activity at 50 nM by Kinomescan method relative to control
[3] = biological target: Hepatocyte growth factor receptor (Homo sapiens) (UniProt P08581); experiment: Inhibition of wild-type human partial length MET (D1010 to S1367 residues) expressed in bacterial expression system assessed as residual activity at 50 nM by Kinomescan method relative to control
[4] = biological target: Serine/threonine-protein kinase PAK 3 (Homo sapiens) (UniProt O75914); experiment: Inhibition of wild-type human full length PAK3 (M1 to R544 residues) expressed in bacterial expression system assessed as residual activity at 50 nM by Kinomescan method relative to control
Serine/threonine-protein kinase PAK 3 (Homo sapiens), sequence (O75914 whole entry, looked up, the tested form may be a part): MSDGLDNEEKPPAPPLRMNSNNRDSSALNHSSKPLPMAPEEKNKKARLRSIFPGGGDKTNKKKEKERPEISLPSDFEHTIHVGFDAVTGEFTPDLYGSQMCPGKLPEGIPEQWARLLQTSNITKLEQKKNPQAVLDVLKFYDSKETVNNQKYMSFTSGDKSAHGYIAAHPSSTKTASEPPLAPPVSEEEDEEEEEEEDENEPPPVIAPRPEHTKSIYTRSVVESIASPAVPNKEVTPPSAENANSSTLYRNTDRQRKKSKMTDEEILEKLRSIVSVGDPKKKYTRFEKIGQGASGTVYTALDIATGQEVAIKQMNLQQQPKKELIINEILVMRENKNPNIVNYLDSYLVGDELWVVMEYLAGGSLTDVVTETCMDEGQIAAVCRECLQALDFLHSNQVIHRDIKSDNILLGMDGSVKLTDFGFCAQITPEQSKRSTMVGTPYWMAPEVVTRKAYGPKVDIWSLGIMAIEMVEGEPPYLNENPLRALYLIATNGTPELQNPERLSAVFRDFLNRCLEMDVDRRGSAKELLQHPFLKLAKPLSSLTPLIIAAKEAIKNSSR

[5] = biological target: Serine/threonine-protein kinase SIK3 (Homo sapiens) (UniProt Q9Y2K2); experiment: Inhibition of wild-type human partial length QSK (A90 to L395 residues) expressed in mammalian expression system assessed as residual activity at 50 nM by Kinomescan method relative to control
Serine/threonine-protein kinase SIK3 (Homo sapiens), sequence (Q9Y2K2 whole entry, looked up, the tested form may be a part): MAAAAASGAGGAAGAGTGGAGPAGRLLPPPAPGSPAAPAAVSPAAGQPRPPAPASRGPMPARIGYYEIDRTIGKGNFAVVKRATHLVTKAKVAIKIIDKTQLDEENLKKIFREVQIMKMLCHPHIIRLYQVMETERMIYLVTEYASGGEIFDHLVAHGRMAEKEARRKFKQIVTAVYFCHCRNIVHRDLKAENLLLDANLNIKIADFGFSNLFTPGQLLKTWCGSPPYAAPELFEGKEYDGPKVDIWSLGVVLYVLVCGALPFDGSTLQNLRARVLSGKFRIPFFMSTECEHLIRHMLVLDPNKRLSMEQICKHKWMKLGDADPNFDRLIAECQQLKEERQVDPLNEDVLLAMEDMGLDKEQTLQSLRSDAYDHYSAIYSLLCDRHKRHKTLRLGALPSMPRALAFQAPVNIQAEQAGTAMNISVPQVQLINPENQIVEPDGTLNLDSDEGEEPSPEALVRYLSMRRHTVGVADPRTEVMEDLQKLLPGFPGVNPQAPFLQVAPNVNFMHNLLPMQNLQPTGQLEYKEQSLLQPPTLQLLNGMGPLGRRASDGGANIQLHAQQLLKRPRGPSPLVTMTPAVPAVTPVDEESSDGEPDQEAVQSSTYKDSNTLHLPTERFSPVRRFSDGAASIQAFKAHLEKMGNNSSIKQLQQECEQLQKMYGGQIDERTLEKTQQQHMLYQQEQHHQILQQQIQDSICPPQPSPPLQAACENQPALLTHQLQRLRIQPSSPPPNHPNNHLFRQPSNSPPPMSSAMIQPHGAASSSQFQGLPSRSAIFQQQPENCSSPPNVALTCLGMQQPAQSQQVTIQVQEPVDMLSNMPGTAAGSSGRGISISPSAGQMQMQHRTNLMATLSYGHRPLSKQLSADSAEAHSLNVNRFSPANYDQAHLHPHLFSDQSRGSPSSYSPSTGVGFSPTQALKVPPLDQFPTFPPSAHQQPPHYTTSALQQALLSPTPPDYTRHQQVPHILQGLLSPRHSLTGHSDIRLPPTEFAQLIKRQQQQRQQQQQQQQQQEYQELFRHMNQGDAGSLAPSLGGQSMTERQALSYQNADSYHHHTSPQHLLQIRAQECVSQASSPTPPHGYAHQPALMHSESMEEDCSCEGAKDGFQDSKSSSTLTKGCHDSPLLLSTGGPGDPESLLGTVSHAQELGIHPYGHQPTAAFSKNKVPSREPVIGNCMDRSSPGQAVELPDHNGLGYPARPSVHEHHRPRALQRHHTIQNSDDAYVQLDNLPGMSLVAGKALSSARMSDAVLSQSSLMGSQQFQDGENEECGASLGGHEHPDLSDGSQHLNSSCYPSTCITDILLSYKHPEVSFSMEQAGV

[6] = biological target: Phosphatidylinositol 4-phosphate 5-kinase type-1 gamma (Homo sapiens) (UniProt O60331); experiment: Inhibition of wild-type human partial length PIP5K1C (M1 to T668 residues) expressed in mammalian expression system assessed as residual activity at 50 nM by Kinomescan method relative to control
[7] = biological target: Protein kinase C epsilon type (Homo sapiens) (UniProt Q02156); experiment: Inhibition of wild-type human partial length PKCE (A378 to P737 residues) expressed in mammalian expression system assessed as residual activity at 50 nM by Kinomescan method relative to control
Protein kinase C epsilon type (Homo sapiens), sequence (Q02156 whole entry, the tested form may be a part): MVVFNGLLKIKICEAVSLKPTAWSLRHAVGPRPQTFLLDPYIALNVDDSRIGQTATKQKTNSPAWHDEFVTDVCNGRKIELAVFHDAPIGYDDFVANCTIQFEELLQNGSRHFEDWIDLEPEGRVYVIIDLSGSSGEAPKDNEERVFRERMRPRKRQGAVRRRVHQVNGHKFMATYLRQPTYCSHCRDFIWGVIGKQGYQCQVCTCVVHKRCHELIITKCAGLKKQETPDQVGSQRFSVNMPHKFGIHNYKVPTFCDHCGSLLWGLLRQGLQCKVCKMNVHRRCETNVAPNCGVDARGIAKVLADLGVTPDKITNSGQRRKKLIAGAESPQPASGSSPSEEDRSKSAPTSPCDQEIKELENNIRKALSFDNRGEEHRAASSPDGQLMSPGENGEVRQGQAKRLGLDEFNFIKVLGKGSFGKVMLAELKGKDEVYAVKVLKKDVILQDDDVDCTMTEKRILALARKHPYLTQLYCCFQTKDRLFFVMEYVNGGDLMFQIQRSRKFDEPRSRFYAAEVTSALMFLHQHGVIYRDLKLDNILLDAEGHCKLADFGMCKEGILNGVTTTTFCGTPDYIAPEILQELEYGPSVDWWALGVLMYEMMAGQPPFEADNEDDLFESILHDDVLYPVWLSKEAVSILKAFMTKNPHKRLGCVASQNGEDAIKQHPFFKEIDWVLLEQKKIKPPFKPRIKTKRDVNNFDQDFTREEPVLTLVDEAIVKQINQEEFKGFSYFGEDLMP

[8] = biological target: Tyrosine-protein kinase JAK1 (Homo sapiens, UniProt P23458); experiment: Inhibition of human JAK1 (V856 to K1154 residues) expressed in bacterial expression system assessed as residual activity at 50 nM by KINOMEscan assay relative to control
Tyrosine-protein kinase JAK1, sequence (P23458 whole entry, the tested form may be a part): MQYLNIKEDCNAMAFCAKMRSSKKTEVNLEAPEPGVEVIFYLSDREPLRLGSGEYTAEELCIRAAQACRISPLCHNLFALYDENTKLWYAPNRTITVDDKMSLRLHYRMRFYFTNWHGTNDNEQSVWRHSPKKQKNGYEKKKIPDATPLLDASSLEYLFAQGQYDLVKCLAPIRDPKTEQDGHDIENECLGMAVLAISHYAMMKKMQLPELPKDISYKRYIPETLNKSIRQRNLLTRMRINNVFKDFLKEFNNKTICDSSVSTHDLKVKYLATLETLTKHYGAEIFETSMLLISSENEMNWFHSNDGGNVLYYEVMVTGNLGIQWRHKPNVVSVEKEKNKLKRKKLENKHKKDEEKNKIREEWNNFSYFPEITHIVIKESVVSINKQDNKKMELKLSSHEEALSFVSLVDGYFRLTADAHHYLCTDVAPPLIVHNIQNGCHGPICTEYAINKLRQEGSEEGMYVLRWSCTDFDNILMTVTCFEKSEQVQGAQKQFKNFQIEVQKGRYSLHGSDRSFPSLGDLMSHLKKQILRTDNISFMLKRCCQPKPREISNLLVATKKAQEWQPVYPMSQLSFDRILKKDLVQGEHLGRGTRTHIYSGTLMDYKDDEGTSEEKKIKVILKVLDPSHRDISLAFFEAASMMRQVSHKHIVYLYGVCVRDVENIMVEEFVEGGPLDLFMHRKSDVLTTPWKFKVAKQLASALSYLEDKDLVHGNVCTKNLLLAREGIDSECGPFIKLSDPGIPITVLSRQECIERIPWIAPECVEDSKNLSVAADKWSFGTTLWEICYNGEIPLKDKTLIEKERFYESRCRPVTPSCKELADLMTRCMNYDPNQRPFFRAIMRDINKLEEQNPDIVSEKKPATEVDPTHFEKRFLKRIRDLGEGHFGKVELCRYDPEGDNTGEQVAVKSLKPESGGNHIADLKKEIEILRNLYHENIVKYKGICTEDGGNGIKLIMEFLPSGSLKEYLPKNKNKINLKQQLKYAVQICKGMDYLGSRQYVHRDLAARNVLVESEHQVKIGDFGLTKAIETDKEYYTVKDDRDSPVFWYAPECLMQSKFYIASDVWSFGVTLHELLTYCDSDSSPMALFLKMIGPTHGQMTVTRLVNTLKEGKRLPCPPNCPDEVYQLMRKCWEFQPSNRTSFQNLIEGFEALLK

[9] = biological target: Serine/threonine-protein kinase TBK1 (Homo sapiens) (UniProt Q9UHD2); experiment: Inhibition of wild-type human full length TBK1 (M1 to L729 residues) expressed in mammalian expression system assessed as residual activity at 50 nM by Kinomescan method relative to control
[10] = biological target: Serine/threonine-protein kinase Nek2 (Homo sapiens) (UniProt P51955); experiment: Inhibition of wild-type human partial length NEK2 (M1 to K309 residues) expressed in bacterial expression system assessed as residual activity at 50 nM by Kinomescan method relative to control
Serine/threonine-protein kinase Nek2 (Homo sapiens), sequence (P51955 whole entry, the tested form may be a part): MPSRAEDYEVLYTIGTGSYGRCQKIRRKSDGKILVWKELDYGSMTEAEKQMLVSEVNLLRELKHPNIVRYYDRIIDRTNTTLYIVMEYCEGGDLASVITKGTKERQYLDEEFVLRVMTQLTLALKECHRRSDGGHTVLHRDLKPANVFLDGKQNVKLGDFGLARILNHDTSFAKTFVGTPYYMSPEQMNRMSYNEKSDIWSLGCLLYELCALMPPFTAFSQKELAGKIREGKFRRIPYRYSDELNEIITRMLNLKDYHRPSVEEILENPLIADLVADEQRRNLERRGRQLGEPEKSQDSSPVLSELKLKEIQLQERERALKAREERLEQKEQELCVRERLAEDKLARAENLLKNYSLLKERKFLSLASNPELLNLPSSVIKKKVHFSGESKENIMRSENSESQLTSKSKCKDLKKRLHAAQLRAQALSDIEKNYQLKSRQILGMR

[11] = biological target: Ephrin type-A receptor 8 (Homo sapiens) (UniProt P29322); experiment: Inhibition of wild-type human partial length EPHA8 (Q608 to C920 residues) expressed in bacterial expression system assessed as residual activity at 50 nM by Kinomescan method relative to control
[12] = biological target: Ribosomal protein S6 kinase alpha-4 (Homo sapiens) (UniProt O75676); experiment: Inhibition of wild-type human partial length N-terminal MSK2 kinase domain 1 expressed in bacterial expression system assessed as residual activity at 50 nM by Kinomescan method relative to control
[13] = biological target: MAP/microtubule affinity-regulating kinase 4 (Homo sapiens) (UniProt Q96L34); experiment: Inhibition of wild-type human partial length MARK4 (K29 to G340 residues) expressed in bacterial expression system assessed as residual activity at 50 nM by Kinomescan method relative to control
[14] = biological target: Transient receptor potential cation channel subfamily M member 6 (Homo sapiens) (UniProt Q9BX84); experiment: Inhibition of wild-type human partial length TRPM6 (Q1723 to I1998 residues) expressed in mammalian expression system assessed as residual activity at 50 nM by Kinomescan method relative to control
[15] = biological target: Discoidin domain-containing receptor 2 (Homo sapiens) (UniProt Q16832); experiment: Inhibition of wild-type human partial length DDR2 (V555 to E855 residues) expressed in mammalian expression system assessed as residual activity at 50 nM by Kinomescan method relative to control
[16] = biological target: Mitogen-activated protein kinase kinase kinase 4 (Homo sapiens) (UniProt Q9Y6R4); experiment: Inhibition of wild-type human partial length MAP3K4 ([…] residues) expressed in mammalian expression system assessed as residual activity at 50 nM by Kinomescan method relative to control
[17] = biological target: Calcium/calmodulin-dependent protein kinase type II subunit delta (Homo sapiens) (UniProt Q13557); experiment: Inhibition of wild-type human partial length CAMK2D (M1 to E329 residues) expressed in bacterial expression system assessed as residual activity at 50 nM by Kinomescan method relative to control
[18] = biological target: Serine/threonine-protein kinase B-raf (Homo sapiens) (UniProt P15056); experiment: Inhibition of wild-type human partial length BRAF (S429 to E741 residues) expressed in mammalian expression system assessed as residual activity at 50 nM by Kinomescan method relative to control
[19] = biological target: Dual specificity mitogen-activated protein kinase kinase 3 (Homo sapiens) (UniProt P46734); experiment: Inhibition of wild-type human full length MAP2K3 (M1 to S318 residues) expressed in mammalian expression system assessed as residual activity at 50 nM by Kinomescan method relative to control
Dual specificity mitogen-activated protein kinase kinase 3 (Homo sapiens), sequence (P46734 whole entry, the tested form may be a part): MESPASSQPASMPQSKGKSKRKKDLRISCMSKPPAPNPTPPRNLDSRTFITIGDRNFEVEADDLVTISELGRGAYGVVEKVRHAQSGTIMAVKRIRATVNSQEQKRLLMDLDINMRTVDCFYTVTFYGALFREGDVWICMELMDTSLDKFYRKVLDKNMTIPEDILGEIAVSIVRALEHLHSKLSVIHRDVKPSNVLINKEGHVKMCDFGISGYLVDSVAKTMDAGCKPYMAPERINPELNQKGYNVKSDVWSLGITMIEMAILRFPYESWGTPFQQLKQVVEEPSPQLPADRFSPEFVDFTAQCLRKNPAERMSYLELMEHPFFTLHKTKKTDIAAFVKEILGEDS

[20] = biological target: Serine/threonine-protein kinase 17B (Homo sapiens) (UniProt O94768); experiment: Inhibition of wild-type human full length DRAK2 (M1 to C372 residues) expressed in bacterial expression system assessed as residual activity at 50 nM by Kinomescan method relative to control
[21] = biological target: Macrophage-stimulating protein receptor (Homo sapiens) (UniProt Q04912); experiment: Inhibition of wild-type human partial length RON (I1057 to L1363 residues) expressed in bacterial expression system assessed as residual activity at 50 nM by Kinomescan method relative to control
[22] = biological target: Aurora kinase A (Homo sapiens) (UniProt O14965); experiment: Inhibition of wild-type human partial length AURA (E122 to K401 residues) expressed in mammalian expression system assessed as residual activity at 50 nM by Kinomescan method relative to control
[23] = biological target: Vascular endothelial growth factor receptor 3 (Homo sapiens) (UniProt P35916); experiment: Inhibition of wild-type human partial length FLT4 (E821 to E1196 residues) expressed in bacterial expression system assessed as residual activity at 50 nM by Kinomescan method relative to control
[24] = biological target: TRAF2 and NCK-interacting protein kinase (Homo sapiens) (UniProt Q9UKE5); experiment: Inhibition of wild-type human partial length TNIK (D4 to K311 residues) expressed in bacterial expression system assessed as residual activity at 50 nM by Kinomescan method relative to control
[25] = biological target: Phosphatidylinositol 4,5-bisphosphate 3-kinase catalytic subunit alpha isoform (Homo sapiens) (UniProt P42336); experiment: Inhibition of wild-type human partial length PI3KCA (R108 to N1068 residues) expressed in mammalian expression system assessed as residual activity at 50 nM by Kinomescan method relative to control

Serine/threonine-protein kinase Nek7 (Homo sapiens), sequence (Q8TDX7 whole entry, looked up, the tested form may be a part): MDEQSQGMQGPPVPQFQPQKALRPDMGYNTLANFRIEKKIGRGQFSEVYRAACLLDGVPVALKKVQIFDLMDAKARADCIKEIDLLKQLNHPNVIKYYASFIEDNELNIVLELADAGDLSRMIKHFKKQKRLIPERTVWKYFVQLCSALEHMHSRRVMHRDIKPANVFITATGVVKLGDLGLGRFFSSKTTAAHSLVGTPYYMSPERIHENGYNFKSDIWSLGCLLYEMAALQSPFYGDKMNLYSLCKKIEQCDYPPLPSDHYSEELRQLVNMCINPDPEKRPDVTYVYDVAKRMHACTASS

Compound | Activity [1] | Activity [2] | Activity [3] | Activity [4] | Activity [5] | Activity [6] | Activity [7] | Activity [8] | Activity [9] | Activity [10] | Activity [11] | Activity [12] | Activity [13] | Activity [14] | Activity [15] | Activity [16] | Activity [17] | Activity [18] | Activity [19] | Activity [20] | also measured
CC1(C)[C@H](Nc2c(C(N)=O)cnn3cc(-c4ccccc4)cc23)CC[C@]1(C)N | 100% | 72% | 88% | 53% | 68% | 68% | 58% | 1.4% | 90% | 72% | 100% | 100% | 79% | 100% | 100% | 96% | 100% | 92% | 96% | 100% | Activity [21]: 100%; Activity [22]: 88%; Activity [23]: 100%; Activity [24]: 66%; Activity [25]: 100%
COc1ccc(-c2cc3c(N[C@@H]4CC[C@](C)(N)C4(C)C)c(C(N)=O)cnn3c2)cn1 | 100% | 90% | 87% | 64% | 86% | 77% | 72% | 9% | 97% | 93% | 100% | 100% | 93% | 90% | 100% | 96% | 100% | 100% | 92% | 100% | Activity [21]: 100%; Activity [22]: 100%; Activity [23]: 86%; Activity [24]: 93%; Activity [25]: 100%
